Experimental data taken from US12576069B2, “Compositions and methods for treating slow-flow vascular malformations” (YALE UNIVERSITY, priority 2019, dated 2026).
Where two headings read alike, the source gives them in different places. Blank lines part the entries; values can stand above or below the compound they belong to.

Key:
[1] = test system: congenital vascular malformations; details: conventional treatment of vascular malformations; at times lethal; cited from earlier work
[2] = cited from earlier work
[3] = test system: complicated vascular malformations; details: cited from earlier work
[4] = oral rapamycin, toxicities attributable to rapamycin

Experimental for venous malformation: A relatively healthy patient with severely symptomatic venous malformations of the subcutaneous and intramuscular components of their thigh was treated according to methods of the disclosure. Their lesions were examined and diagnosis of the condition was made and confirmed based on duplex ultrasound and contrast enhanced MRI. […] Solutions were delivered to the patient using an operating suite using a sterile syringe. A total of 2 mL of omnipaque intravenous contrast was added into the mixture for radiopacity purposes under fluoroscopy and for in vivo visualization of the drug. Final concentration of the mixture was approximately 1 mg/mL This mixture was agitated via a three-way stopcock in the absence of air. The venous malformations were accessed percutaneously, using ultrasound and x-ray guidance. […] Different components of this multi focal venous malformation were similarly targeted and treated. […] Needle access tracts were plugged using a collagen matrix foam, and a sterile dressing was applied. The procedure was done under general endotracheal anesthesia, and the patient received postoperative anti-inflammatory and analgesic medications. […] A healthy patient with a disfiguring, symptomatic venous malformation of the subcutaneous tissues of the left nare was treated according to methods of the disclosure. Their lesion was examined, and diagnosis of the condition was made and confirmed based on contrast enhanced MRI. […] Solutions were delivered to the patient using an operating suite using a sterile syringe. A total of 2 mL of omnipaque intravenous contrast was added into the mixture for radiopacity purposes under fluoroscopy and for in vivo visualization of the drug. Final concentration of the mixture was approximately 1 mg/mL. This mixture was agitated via a three-way stopcock in the absence of air. The venous malformation was accessed percutaneously, using ultrasound and x-ray guidance. […] Different components of this focal venous malformation were similarly targeted and treated. […] Needle access tracts were plugged using a collagen matrix foam, and a sterile dressing was applied. The procedure was done under general endotracheal anesthesia, and the patient received postoperative anti-inflammatory and analgesic medications.

SMILES: CCO [absolute ethanol, ethanol]
side effect profile [1]: up to 50%

fevers or infection at follow-up (venous malformation; human, in vivo): no evidence of fevers or infection
fevers, infection at follow-up (venous malformation; human, in vivo): no evidence of fevers, infection
perioperative complications (venous malformation; human, in vivo): no perioperative complications
post-operative labs (venous malformation; human, in vivo): within expected, normal limits
SMILES: CO[C@H]1C[C@@H]2CC[C@@H](C)[C@@](O)(O2)C(=O)C(=O)N2CCCC[C@H]2C(=O)O[C@H]([C@H](C)C[C@@H]2CC[C@@H](OC(=O)C(C)(CO)CO)[C@H](OC)C2)CC(=O)[C@H](C)/C=C(\C)[C@@H](O)[C@@H](OC)C(=O)[C@H](C)C[C@H](C)/C=C/C=C/C=C/1C [Temsirolimus]
pain relief at follow-up (venous malformation; Example 1, post-operative day two, 14, and 90): excellent pain relief
venous flow in the malformation, color flow Doppler (venous malformation; Example 2, left nasal venous malformation, FIGS. 5A-5B): diminished venous flow
pain relief at follow-up (venous malformation; Example 2, post-operative day 14 and day ~90): partial pain relief
normal arterial flow adjacent to the malformation, spectral waveform analysis (venous malformation; human, in vivo): preservation of intervening normal arterial network of the face
peak concentration Cmax, temsirolimus compared with sirolimus ([2]; IV infusion, theoretical comparison of equal units): almost similar

SMILES: CO[C@H]1C[C@@H]2CC[C@@H](C)[C@@](O)(O2)C(=O)C(=O)N2CCCC[C@H]2C(=O)O[C@H]([C@H](C)C[C@@H]2CC[C@@H](O)[C@H](OC)C2)CC(=O)[C@H](C)/C=C(\C)[C@@H](O)[C@@H](OC)C(=O)[C@H](C)C[C@H](C)/C=C/C=C/C=C/1C [rapamycin]
patients taken off of the study due to persistent adverse effects ([3]; oral rapamycin, phase II trial enrolling 61 patients): Two
Grade 3 and higher blood/bone marrow toxicity, share of patients [3, 4]: 27%
Grade 3 and higher gastrointestinal toxicity, share of patients [3, 4]: 3%
Grade 3 and higher metabolic/laboratory toxicity, share of patients [3, 4]: 3%
other commonly reported negative side effects ([3]; systemic rapamycin): stomatitis, headache, infections, myelodepression, acne, and hyperlipidemia
sirolimus AUC relative to temsirolimus AUC ([2]; single 25 mg intravenous dose of temsirolimus, patients with cancer): 2.7 fold
